According to patent publication US20250215397A1, “TWO-DIMENSIONAL CULTURE METHOD HAVING CLEAR CHEMICAL COMPOSITION FOR CULTURING THREE-DIMENSIONAL INTESTINAL ORGANOID-DERIVED INTESTINAL STEM CELL AGGREGATE” (KOREA RESEARCH INSTITUTE OF BIOSCIENCE AND BIOTECHNOLOGY, priority 2022, published 2025):
Structures can show the parent of a compound that is named as a salt.

Tests used:
Assay type in all cases: cell-based, human
[1] = test system: two-dimensional intestinal stem cell population; assay: Subculture of two-dimensional intestinal stem cells, engraftment / cell number; conditions: for need for long-term subculturing: factor removed from culture medium, subculture, FIG. 12; for subculture efficiency: added during subculture; for subculture efficiency / cell engraftment during subculture: FIG. 13; for cell engraftment during subculture: treatment during subculture
Experimental: (§1) The three-dimensional intestinal organoids were isolated from a Matrigel dome and the remaining three-dimensional intestinal organoids were removed as much as possible by pipetting. The separated organoids were placed in 1 ml of 0.25% trypsin-EDTA (TE, Invitrogen) and incubated at 37° C. a water bath for about 5 minutes. Then, pipetting was performed less than five times so that the organoids were allowed to be isolated into single cells and small clumps, and a basal medium was added so that the total volume thereof was 10 ml. The cells fed into a centrifuge were placed on culture dishes coated with feeder cells or 1% of Matrigel (Corning). Thereafter, 200 ng/ml of R-spondin 1 (R&D Systems), 100 ng/ml of EGF (R&D Systems), and 2.5 μM of Postaglandin E2 (Sigma-aldrich) were used as main components, cultured in an intestinal stem cell culture medium (2 mM of L-glutamine, 1% of Penicillin-Streptomycin, and 15 mM of HEPES buffer in Advanced DMEM F12) comprising, as an auxiliary component, one or more selected from the group consisting of 1×B27 (Invitrogen), 80 ng/ml of Noggin (R&D Systems), 10 nM of [Leu15]-Gastrin I (Sigma-aldrich), 100 ng/ml of human recombinant WNT3A (R&D Systems), 500 nM of A-83-01 (Tocris), 10 μM of SB202190 (Sigma-aldrich), 1 mM of N-acetylcysteine (Sigma-aldrich), and 10 mM of nicotinamide (Sigma-aldrich), and subcultured every 7 to 10 days. During the first 2 days of subculture, 1 μM of Jagged-1 (Anaspec) and/or 2.5 μM of Y-27632 (Tocirs) were added to the intestinal stem cell culture medium.
(§2) The two-dimensional intestinal stem cell population was plated on a culture dish coated with 1% of Matrigel and then cultured for 2 to 7 days. Thereafter, the culture medium was removed, and washing was performed 1 to 2 times with PBS (Sigma-aldrich), and TE (Invitrogen) was added thereto to detach the cells. After centrifugation, a medium was added to isolate the cells into single cells, and then the number of cells was measured using CountessIII cell counter (Thermo Scientific. Inc.).

[2] = test system: two-dimensional intestinal stem cell population; assay: Two-dimensional culture of intestinal stem cell population with removal of medium factors or inhibitor treatment; conditions: for role of essential culture medium factor (stemness, proliferation, death): presence or absence of each factor, FIGS. 7-10; for growth of the two-dimensional intestinal stem cell population: treatment with a WNT inhibitor, morphology, FIG. 8
Experimental: as §1
To measure viability of a two-dimensional intestinal stem cell population cultured in a culture dish coated with 1% of Matrigel, a kit (LIVE/DEAD Viability/Cytotoxicity Kit, Invitrogen) capable of distinguishing and staining surviving cells and dead cells was used. The surviving cells were stained with calcein-AM, and the dead cells were stained with ethidium homodimer-1. The stained cells were observed through a fluorescence microscope (Olympus).
as §2
The intestinal stem cell population was fixed with 4% of paraformaldehyde (PFA) and stained with 0.02% of crystal violet solution (Sigma-aldrich) at room temperature for 10 minutes. Thereafter, images were acquired after washing three times with sterile water. A colony size of the intestinal stem cell population was analyzed using Image J software (National Institute of Health).

[3] = test system: two-dimensional intestinal stem cell population; assay: Differentiation into 2.5-dimensional intestinal epithelial cells by air-liquid interface culture, medium factor screening; conditions: minimal medium composition; FIG. 24
Experimental: The intestinal stem cells grown to a density of 70 to 80% were washed 1-2 times with PBS, and then treated with TE in an incubator at 37° C. for 5 to 7 minutes. The intestinal stem cells isolated into single cells were collected and then diluted using the hIO medium. The cells were gathered by centrifugation, supernatant was removed, the intestinal stem cell culture medium was added thereto and sufficiently mixed, and then the number of cells was measured using Countess III cell counter (Thermo Scientific. Inc.). 2.5-3.5×10^5 cells were placed in an insert of 12-transwell plate (Corning) coated with 1% of Matrigel, and cultured in an incubator. After the cell density reached 100%, the culture medium of an upper layer was completely removed, and the culture medium of a lower layer was replaced with a differentiation medium (2 mM of L-glutamine, 1% of Penicillin-Streptomycin, and 15 mM of a HEPES buffer in Advanced DMEM F12) comprising 200 ng/ml of R-spondin 1 (R&D Systems), 100 ng/ml of EGF (R&D Systems), 2.5 µM of Prostaglandin E2 (Sigma-aldrich), 10 μM of SB202190 (Sigma-aldrich), and 10 mM of nicotinamide (Sigma-aldrich). Thereafter, once every 2 days, a surface of the upper layer was washed with the PBS or hIO medium, and the lower layer was replaced with a new differentiation medium and cultured for 8 to 12 days.

`Cc1cccc(-c2nn(C(=S)Nc3ccccc3)cc2-c2ccnc3ccccc23)n1` [A-83-01] was tested, and the “need for long-term subculturing” value [1] was “required to more efficiently perform long-term culturing”.
`CC(=O)N[C@@H](CS)C(=O)O` [N-acetylcysteine] was tested, and the “need for long-term subculturing” value [1] was “required to more efficiently perform long-term culturing”.
With `O=C(NOC[C@H](O)CO)c1ccc(F)c(F)c1Nc1ccc(I)cc1F` [PD0325901] the “cell proliferation of the two-dimensional intestinal stem cell population” value ([2]; EGF inhibitor treatment, morphology and live/dead assay, FIG. 9) was “cell proliferation is inhibited”.
For `CCCCC[C@H](O)/C=C/[C@H]1[C@H](O)CC(=O)[C@@H]1C/C=C\CCCC(=O)O` [PGE2, prostaglandin E2], the “role of essential culture medium factor (stemness, proliferation, death)” value [2] was “modulate the proliferation of the intestinal stem cell population” and the “effect on differentiation into intestinal epithelial cells” value [3] was “excellent effect on differentiation into intestinal epithelial cells”.
`Oc1ccc(-c2nc(-c3ccncc3)c(-c3ccc(F)cc3)[nH]2)cc1` [SB202190] was tested, and the “need for long-term subculturing” value [1] was “required to more efficiently perform long-term culturing” and the “effect on differentiation into intestinal epithelial cells” value [3] was “excellent effect on differentiation into intestinal epithelial cells”.
With `Cc1cc(-c2ccc(CC(=O)Nc3ccc(-c4cccnc4)cc3)cc2)ccn1` [WNT-C59] the “growth of the two-dimensional intestinal stem cell population” value [2] was “growth is inhibited”.
With `Oc1nc(-c2ccc(C(F)(F)F)cc2)nc2c1CSCC2` [XAV939] the “growth of the two-dimensional intestinal stem cell population” value [2] was “growth is inhibited”.
For `C[C@@H](N)[C@H]1CC[C@H](C(=O)Nc2ccncc2)CC1` [Y-27632, R-(+)-trans-4-(1-aminoethyl)-N-(4-pyridyl) cyclohexanecarboxamidedihydrochloridemonohydrate], the subculture efficiency [1] was “subculture efficiency is increased” and the “cell engraftment during subculture” value [1] was “cell engraftment increases”.
`NC(=O)c1cccnc1` [nicotinamide] was tested, and the “need for long-term subculturing” value [1] was “required to more efficiently perform long-term culturing” and the “effect on differentiation into intestinal epithelial cells” value [3] was “excellent effect on differentiation into intestinal epithelial cells”.
For `CCCC(CCC)C(=O)O` [valproic acid], the subculture efficiency [1] was “subculture efficiency is increased” and the “cell engraftment during subculture” value [1] was “cell engraftment increases”.
In the case of “EGF: receptor tyrosine kinase ligand, epidermal growth factor (NSDSECPLSHDGYCLHDGVCMYIEALDKYACNCVVGYIGERCQYRDLKWWELR; Epidermal growth factor; UniProt P01133 971-1023, looked up)”, the “role of essential culture medium factor (stemness, proliferation, death)” value [2] is reported as “prevent death of intestinal stem cell population and modulate proliferation” and the “effect on differentiation into intestinal epithelial cells” value [3] is reported as “excellent effect on differentiation into intestinal epithelial cells”.
With Jagged-1: Notch activator the subculture efficiency [1] was “subculture efficiency is increased” and the “cell engraftment during subculture” value [1] was “cell engraftment increases”.
